Reference: ChEMBL document CHEMBL1201862, “PubChem BioAssay data set” (2004)
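Growth conditions: 96-well plates. Treatment: test compound, 48 hours, 5 concentrations. Analysis: linear interpolation between bracketing concentrations; unreached endpoints set to highest concentration. GI50: concentration for 50% inhibition of growth.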 Activity calls are given as the source filed them. Rule as the data show it: active = GI50 up to about 1.1 µM and inactive = higher.

How the values were obtained:
Experiment in all cases: NCI tumour cell line growth inhibition, 48 h
COLO 205 = system: COLO 205
UO-31 = system: UO-31
EKVX = system: EKVX
CCRF-CEM = system: CCRF-CEM
SR = system: SR
LOX IMVI = system: LOX IMVI
SK-OV-3 = system: SK-OV-3
RXF 393 = system: RXF 393
A498 = system: A498
NCI-H522 = system: NCI-H522
OVCAR-8 = system: OVCAR-8
MDA-N = system: MDA-N
M14 = system: M14
TK-10 = system: TK-10
ACHN = system: ACHN
SF-268 = system: SF-268
UACC-62 = system: UACC-62
RPMI-8226 = system: RPMI-8226
HOP-62 = system: HOP-62
HCT-15 = system: HCT-15
OVCAR-5 = system: OVCAR-5
NCI-H23 = system: NCI-H23
SK-MEL-28 = system: SK-MEL-28
SF-295 = system: SF-295
MDA-MB-435 = system: MDA-MB-435
MOLT-4 = system: MOLT-4
SF-539 = system: SF-539
HT-29 = system: HT-29
SW-620 = system: SW-620
Malme-3M = system: Malme-3M
MCF7 = system: MCF7
NCI-H226 = system: NCI-H226
HL-60 = system: HL-60
UACC-257 = system: UACC-257
IGROV-1 = system: IGROV-1
Hs-578T = system: Hs-578T
T47D = system: T47D
A549 = system: A549
NCI/ADR-RES = system: NCI/ADR-RES
SN12C = system: SN12C
U-251 = system: U-251
OVCAR-4 = system: OVCAR-4
KM12 = system: KM12
DU-145 = system: DU-145
HOP-92 = system: HOP-92
K562 = system: K562
MDA-MB-231 = system: MDA-MB-231
SNB-75 = system: SNB-75
786-0 = system: 786-0
HCT-116 = system: HCT-116
NCI-H460 = system: NCI-H460
OVCAR-3 = system: OVCAR-3
SK-MEL-5 = system: SK-MEL-5
PC-3 = system: PC-3
HCC 2998 = system: HCC 2998
SNB-19 = system: SNB-19
SK-MEL-2 = system: SK-MEL-2
CAKI-1 = system: CAKI-1
BT-549 = system: BT-549

## Cc1ccc2c(c1)CC1(Cc3c(C)cccc3C1=O)C2=O (centres undefined)
COLO 205
  GI50: > 100 µM (inactive)
UO-31
  GI50: > 100 µM (inactive)
EKVX
  GI50: > 100 µM (inactive)
CCRF-CEM
  GI50: > 100 µM (inactive)
SR
  GI50: > 100 µM (inactive)
LOX IMVI
  GI50: > 100 µM (inactive)
SK-OV-3
  GI50: 76.2 µM (inactive)
RXF 393
  GI50: > 100 µM (inactive)
A498
  GI50: > 100 µM (inactive)
NCI-H522
  GI50: > 100 µM (inactive)
OVCAR-8
  GI50: > 100 µM (inactive)
MDA-N
  GI50: > 100 µM (inactive)
M14
  GI50: > 100 µM (inactive)
TK-10
  GI50: > 100 µM (inactive)
ACHN
  GI50: > 100 µM (inactive)
SF-268
  GI50: > 100 µM (inactive)
UACC-62
  GI50: 44.7 µM (inactive)
RPMI-8226
  GI50: > 100 µM (inactive)
HOP-62
  GI50: 28.5 µM (inactive)
HCT-15
  GI50: > 100 µM
OVCAR-5
  GI50: > 100 µM (inactive)
NCI-H23
  GI50: > 100 µM (inactive)
SK-MEL-28
  GI50: > 100 µM (inactive)
SF-295
  GI50: 69.8 µM (inactive)
MDA-MB-435
  GI50: > 100 µM (inactive)
MOLT-4
  GI50: > 100 µM (inactive)
SF-539
  GI50: > 100 µM (inactive)
HT-29
  GI50: > 100 µM (inactive)
SW-620
  GI50: > 100 µM (inactive)
Malme-3M
  GI50: > 100 µM (inactive)
MCF7
  GI50: > 100 µM (inactive)
NCI-H226
  GI50: > 100 µM (inactive)
HL-60
  GI50: > 100 µM (inactive)
UACC-257
  GI50: > 100 µM (inactive)
IGROV-1
  GI50: > 100 µM (inactive)
Hs-578T
  GI50: 22.6 µM (inactive)
T47D
  GI50: > 100 µM (inactive)
A549
  GI50: > 100 µM (inactive)
NCI/ADR-RES
  GI50: > 100 µM (inactive)
SN12C
  GI50: > 100 µM (inactive)
U-251
  GI50: 87.5 µM (inactive)
OVCAR-4
  GI50: > 100 µM (inactive)
KM12
  GI50: > 100 µM (inactive)
DU-145
  GI50: > 100 µM (inactive)
HOP-92
  GI50: 40.2 µM (inactive)
K562
  GI50: > 100 µM (inactive)
MDA-MB-231
  GI50: > 100 µM (inactive)
SNB-75
  GI50: 36.7 µM (inactive)
786-0
  GI50: > 100 µM (inactive)
HCT-116
  GI50: > 100 µM (inactive)
NCI-H460
  GI50: > 100 µM (inactive)
OVCAR-3
  GI50: > 100 µM (inactive)
SK-MEL-5
  GI50: > 100 µM (inactive)
PC-3
  GI50: > 100 µM (inactive)
HCC 2998
  GI50: > 100 µM (inactive)
SNB-19
  GI50: 37.6 µM (inactive)

## Cc1ccc(Cl)c2c(=O)c3ccc([N+](=O)[O-])cc3sc12
COLO 205
  GI50: > 100 µM (inactive)
UO-31
  GI50: > 100 µM (inactive)
SK-MEL-2
  GI50: > 100 µM (inactive)
OVCAR-8
  GI50: > 100 µM (inactive)
MDA-N
  GI50: > 100 µM (inactive)
ACHN
  GI50: > 100 µM (inactive)
UACC-62
  GI50: > 100 µM (inactive)
RPMI-8226
  GI50: > 100 µM (inactive)
HOP-62
  GI50: 79.8 µM (inactive)
HCT-15
  GI50: > 100 µM
OVCAR-5
  GI50: > 100 µM (inactive)
NCI-H23
  GI50: > 100 µM (inactive)
CAKI-1
  GI50: > 100 µM (inactive)
SF-295
  GI50: 82.2 µM (inactive)
MOLT-4
  GI50: > 100 µM (inactive)
MCF7
  GI50: > 100 µM (inactive)
UACC-257
  GI50: > 100 µM (inactive)
A549
  GI50: > 100 µM (inactive)
KM12
  GI50: > 100 µM (inactive)
DU-145
  GI50: > 100 µM (inactive)
K562
  GI50: > 100 µM (inactive)
786-0
  GI50: > 100 µM (inactive)
HCT-116
  GI50: > 100 µM (inactive)
OVCAR-3
  GI50: > 100 µM (inactive)
SK-MEL-5
  GI50: > 100 µM (inactive)
BT-549
  GI50: > 100 µM (inactive)
PC-3
  GI50: > 100 µM (inactive)
SNB-19
  GI50: > 100 µM (inactive)
